Structures are written as SMILES.

The values that follow come from patent US11857635B2, “Linker compound, polyethylene glycol-linker conjugate and derivative thereof and polyethylene glycol-linker-drug conjugate” (JENKEM TECHNOLOGY CO., LTD. (TIANJIN), priority 2017, dated 2024).

The experiment relates to HCT116 tumor. Kind of experiment: Tumor growth inhibition in HCT116 tumor heterotopic transplantation mouse model. In kind it is in vivo. As to conditions: HCT116 subcutaneous tumor in mice, FIG. 6. As to the method:
The experiment was carried out to detect a tumor growth inhibition effect of a drug on the HCT116 tumor heterotopic transplantation mouse model.
G2: positive drug adriamycin (commercially available); and
G3: 4arm PEG-L5-Dox (prepared in Example 22).
An original culture solution was removed by suction after HCT116 cells (commercially available) were received, and 10 mL of fresh culture solution was added. The cells were collected and passaged when 90% of the cells were converged. After the culture solution was removed, 10 ml of EDTA/PBS solution was added and placed at room temperature for 5 minutes, and then the EDTA/PBS solution was removed by suction. […] The cells was counted with a counting plate and diluted with DMEM containing 10% FBS. […]
The cell suspension was changed in advance when it was detected that 80% of the cells were converged on the inoculation day of the cells. […] The cells were counted with a counting plate and diluted with PBS to a concentration of 2*10^7 cells/mL, and then the cells were placed on ice until inoculation.
HCT116 cells were subcutaneously inoculated in a right front axilla of a mouse. […] Tumor volumes were measured twice a week after inoculation, and when an average tumor volume reached 100 to 200 mm^3, 18 mice with similar tumor sizes were selected and randomly divided into 3 groups with 6 mice in each group. […]

For `COc1cccc2c1C(=O)c1c(O)c3c(c(O)c1C2=O)C[C@@](O)(C(=O)CO)C[C@@H]3O[C@H]1C[C@H](N)[C@H](O)[C@H](C)O1` [adriamycin], the Anti-tumor effect result was “obvious anti-tumor effects”.
